# Reference: ChEMBL document CHEMBL1126607, “Synthesis and binding characteristics of potential SPECT imaging agents for sigma-1 and sigma-2 binding sites” (J Med Chem, 1993)
# Molecular target: Sigma 2 receptor
# Assay: The Binding affinity was evaluated against sigma-2 binding site in rat liver using [3H]- -(+)-3-PPP
row,SMILES,Ki [nM]
1,CN(CCc1ccc(Cl)c(Cl)c1)CCN1CCCC1,0.34

# Molecular target: Sigma 2 receptor
# Assay: Binding affinity was evaluated against sigma-2 binding site in rat liver using [3H]DTG -(+)-Dextrallorphan as radioligand
row,Ki [nM],SMILES
1,43.1,CN(CCc1ccc(I)cc1)CCN1CCCC1
2,220,CN(CCN1CCCC1)Cc1cccc(Br)c1
3,124,CN(CCc1ccc(F)cc1)CCN1CCCC1
4,24.5,CN(CCN1CCCC1)Cc1ccc(I)cc1
5,32.5,CN(CCc1ccc(Br)cc1)CCN1CCCC1
6,48.2,CN(CCN1CCCC1)Cc1ccccc1I
7,33.7,CN(CCN1CCCC1)Cc1cccc(I)c1
8,50.5,CN(CCc1ccc(Cl)cc1)CCN1CCCC1

# Continued, compound first:
row,SMILES,Ki [nM]
1,CN(CCc1cccc(Cl)c1)CCN1CCCC1,28.3
2,CN(CCc1cccc(Br)c1)CCN1CCCC1,59.8
3,CN(CCc1cccc(I)c1)CCN1CCCC1,9.1
4,CN(CCc1cccc(F)c1)CCN1CCCC1,104
5,CN(CCc1ccc(Cl)c(Cl)c1)CCN1CCCC1,8.1

# Molecular target: Sigma 2 receptor
# Assay: The Binding affinity was evaluated using [3H]DTG -(+)-Dextrallorphan] in rat liver
row,SMILES,Ki [nM]
1,Cc1ccc(NC(=N)Nc2ccc(C)cc2)cc1,1540
